One compound from US12473249B2, “Aromatic compounds and pharmaceutical uses thereof” (BASF AS, priority 2018, dated 2025) can be followed below.

Marks after values point to notes of the source that are not given here.

Data set [1] concerns APOE*3Leiden mice. Description: Plasma lipids in high-fat diet fed APOE*3Leiden mice. The class given is in vivo, mouse. How it is done:
The APOE*3Leiden mouse expresses a variant of the human apolipoprotein E3 (APOE3), the APOE*3Leiden, in addition to the human apolipoprotein C1 (APOC1).
Studies were performed in APOE*3Leiden mice (13-15 weeks old) placed on a semi-synthetic high fat diet (24% fat w/w) with 0.25% cholesterol w/w. After a 4-week run-in period, mice were sub-divided into groups of 5 mice each and administration of Compound A, Compound B, or vehicle alone was started. Both Compound B and Compound A were administered at a dose of 0.3 mmol/kg bw/day via diet. Sunflower oil (10 ml v/w) was used as a vehicle to facilitate mixing. After 4 weeks of treatment mice were sacrificed by C02 asphyxiation and plasma cholesterol and triglycerides were measured using commercially available kits (Roche*/Hitachi©).
In a further study, performed as described above, the effects of Compound A, Compound B, and Compound C were compared with the effects of Reference Compound 1 ((Z)-3-(pent-2-en-1-yloxy)benzoic acid) and Reference Compound 2 ((Z)-4-(pent-2-en-1-yloxy)benzoic acid) on triglyceride levels. […] The results of this study are described in Example 17.

For data set [2], the system named is C57BL/6 mice. Description: Hepatic steatosis in PN-fed C57BL/6 mice intravenously administered saline, Intralipid or Omegaven. The format is in vivo, mouse. How it is done: Male C57BL/6 mice, 6 to 8 weeks old at initiation of the experiments, were used for all experiments. One group was fed an ad libitum diet of standard rodent chow and water. Six other groups (10 mice per group) were fed a parenteral nutrition (PN) solution ab libitum as described above.
The PN-fed groups received tail vein injections every other day of saline, Omegaven® dosed at 2.4 g/kg/day, or Intralipid® (commercial soybean oil lipid emulsion) dosed at 2.4 g/kg/day and were treated with orogastric gavage administration (every other day) of either MCT or Compound A dosed at 0.6 mmol/kg bw. Intravenous saline was isovolumetric to Intralipid® groups. MCT orogastric gavage was isovolumetric to Compound A treatment (200 μl). The 6 experimental PN diet groups are listed below: • (1) Saline (intravenous)+PN+MCT (gavage) • (2) Intralipid® (intravenous)+PN+MCT (gavage) • (3) Omegaven® (intravenous)+PN+MCT (gavage) • (4) Saline (intravenous)+PN+Compound A (gavage) • (5) Intralipid® (intravenous)+PN+Compound A (gavage) • (6) Omegaven® (intravenous)+PN+Compound A (gavage)

Where [3] appears, read: high-fat high-cholesterol diet, 4 weeks treatment.
Where [4] appears, read: high-fat high-cholesterol diet, 4 weeks treatment, dose 0.1 mmol/kg bw/day.
The mark [5] stands for this setting: PN diet, 19 days, 0.6 mmol/kg bw by gavage, FIGS. 20-21.

For `CCCCCOc1cccc(C(=O)O)c1C` [Compound A, 2-methyl-3-(pentyloxy)benzoic acid], in data set [1] (further study with reference compounds, 0.3 mmol/kg bw/day, FIG. 31), the “triglyceride levels over 4 weeks” value is “significantly reduced”. In data set [1] (setting [3]), the “plasma TG versus vehicle” value is listed as “significantly reduce” and the “total plasma cholesterol versus vehicle” value is on record as “significantly reduce”. In data set [1] (setting [4]), the “Reduction in plasma TG vs control (%)” value was 79*** % and the “Reduction in plasma cholesterol vs control (%)” value is reported as 30*** %. For the same compound, in data set [2] (PN diet with intravenous saline, Intralipid or Omegaven, 0.6 mmol/kg bw by gavage every other day, FIGS. 22-25), the “development of steatosis induced by an oral PN diet (H&E stain in isolated liver sections)” value is given as “prevented the development of steatosis”. The “development of steatosis (Oil Red O stain in isolated liver sections)” value in data set [2] (PN diet with intravenous saline, Intralipid or Omegaven, 0.6 mmol/kg bw by gavage every other day, FIGS. 26-29) is recorded as “prevented the development of steatosis”. In addition, in data set [2] (PN diet with intravenous saline, Intralipid or Omegaven, 0.6 mmol/kg bw by gavage, FIG. 30), the “quantification of lipid accumulation (Oil Red O) as compared with the chow-fed control” value is “prevented the development of steatosis”. In addition, in data set [2] (setting [5]), the “normalized body mass vs any other experimental group” value was “not significantly different”, the “normalized kidney mass vs any other experimental group” value is listed as “not significantly different”, the “normalized liver mass vs any other experimental group” value is “not significantly different” and the “normalized spleen mass vs any other experimental group” value is listed as “not significantly different”.
